Experimental findings from paper PMC2904477 (Biochemistry, 2010) are described below.

In assay [1] the target is T1, L404A/F408A/F412A CB1 receptor (Homo sapiens, UniProt P21554, F408A/F412A/L404A). The settings on record: CP55940 dose-response, mean ± SEM.
Assay [2] addresses F408A CB1 receptor (Homo sapiens, UniProt P21554, F408A). The note with it: [3H]CP55940 saturation binding.
Assay [3] has as its target T1, L404A/F408A/F412A CB1 receptor. The settings on record: [3H]CP55940 saturation binding, mean ± SEM.
Assay [4] concerns the target L404F/F412L CB1 receptor (Homo sapiens, UniProt P21554, F412L/L404F). The settings on record: [3H]CP55940 saturation binding.
In assay [5] the target is L404A CB1 receptor (Homo sapiens, UniProt P21554, L404A). The note with it: [3H]CP55940 saturation binding.
Sequence of L404A CB1 receptor (P21554 whole entry L404A): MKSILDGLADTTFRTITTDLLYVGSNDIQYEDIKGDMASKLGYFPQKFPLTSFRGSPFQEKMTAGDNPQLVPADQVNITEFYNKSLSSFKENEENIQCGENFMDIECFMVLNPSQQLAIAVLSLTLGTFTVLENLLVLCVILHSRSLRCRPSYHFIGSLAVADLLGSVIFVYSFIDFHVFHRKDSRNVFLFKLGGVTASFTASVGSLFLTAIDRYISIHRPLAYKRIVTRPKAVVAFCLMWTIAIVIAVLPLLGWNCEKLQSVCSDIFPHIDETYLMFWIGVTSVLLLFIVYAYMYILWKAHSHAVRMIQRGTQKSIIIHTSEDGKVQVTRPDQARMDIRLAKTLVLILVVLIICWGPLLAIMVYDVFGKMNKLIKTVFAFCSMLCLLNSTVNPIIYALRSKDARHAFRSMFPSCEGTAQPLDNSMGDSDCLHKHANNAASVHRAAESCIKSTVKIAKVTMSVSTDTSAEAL
The target of assay [6] is L404F/F408L CB1 receptor (Homo sapiens, UniProt P21554, F408L/L404F). The settings on record: [3H]CP55940 saturation binding.
Sequence of L404F/F408L CB1 receptor (P21554 whole entry L404F/F408L): as the sequence (P21554 whole entry L404A) above, with A404F, F408L counted along it
In assay [7] the target is T2, K402Q/R405Q/R409Q CB1 receptor (Homo sapiens, UniProt P21554, K402Q/R405Q/R409Q). The note with it: CP55940 dose-response, mean ± SEM.
T2 sequence (P21554 whole entry K402Q/R405Q/R409Q): as the sequence (P21554 whole entry L404A) above, with K402Q, A404L, R405Q, R409Q counted along it
In assay [8] the target is F412A CB1 receptor (Homo sapiens, UniProt P21554, F412A). The settings on record: [3H]CP55940 saturation binding.
Sequence of F412A CB1 receptor (P21554 whole entry F412A): as the sequence (P21554 whole entry L404A) above, with A404L, F412A counted along it
Assay [9] addresses T2, K402Q/R405Q/R409Q CB1 receptor. The settings on record: [3H]CP55940 saturation binding, mean ± SEM.
Assay [10] has as its target T3, wild-type CB1 receptor (Homo sapiens, UniProt P21554). The note with it: CP55940 dose-response; wild-type receptor (reference).
Assay [11] addresses T3, wild-type CB1 receptor. The settings on record: [3H]CP55940 saturation binding, mean ± SEM.

T3 sequence (P21554 whole entry): as the sequence (P21554 whole entry L404A) above, with A404L counted along it
T1 sequence (P21554 whole entry L404A/F408A/F412A): as the sequence (P21554 whole entry L404A) above, with F408A, F412A counted along it
Sequence of F408A CB1 receptor (P21554 whole entry F408A): as the sequence (P21554 whole entry L404A) above, with A404L, F408A counted along it
Sequence of L404F/F412L CB1 receptor (P21554 whole entry L404F/F412L): as the sequence (P21554 whole entry L404A) above, with A404F, F412L counted along it

Regarding `CCCCCCC(C)(C)c1ccc([C@@H]2C[C@H](O)CC[C@H]2CCCO)c(O)c1` [CP55940, (1R,3R,4R)-3-[2-hydroxy-4-(1,1-dimethylheptyl)phenyl]-4-(3-hydroxypropyl)cyclohexan-1-ol], the “GTPγS Emax” value turned out to be 14.4 ± 1.9 % WT in assay [1], 80.6 ± 2.0 % WT in assay [7] and 100.0 % WT in assay [10]. Also, the Bmax turned out to be 4133 ± 105 fmol/mg in assay [2]; 867 ± 80 fmol/mg in [3]; 4531 ± 177 fmol/mg in assay [4]; 3158 ± 135 fmol/mg in assay [5]; 4523 ± 239 fmol/mg in assay [6]; 4062 ± 80 fmol/mg in assay [8]. In addition, the figures for the Bmax in assay [9] and in assay [11] were 3118 ± 142 fmol/mg and 3499 ± 129 fmol/mg, respectively.
